Laboratory results taken from US20090181990A1 (priority 2007, published 2009).

What was measured:
Format in all cases: physicochemical
[1] = Amorphous pemetrexed disodium stability study (HPLC purity, moisture content, XRD on storage); set-up: key to HPLC: % chromatographic purity by HPLC area normalisation; conditions: for HPLC: in % (unit assumed)
Method: (§1) X-ray diffraction data were acquired using a PANalyticalX′pert PRO X-ray diffractometer model.
(§2) System description: Kα1=1.54060 A^0, voltage 45 kV, current 40 mA, Xray source: Cu.
(§3) Experiment parameters: pattern measured between 2θ=4° and 2θ=40° with 0.05° increments; count time was 0.5 second per increment.
(§4) The water content measurements were carried out using a METTLER TOLEDO Model: DL31Karl Fischer Titrator according to standard procedures.
(§5) Purity by HPLC was performed by Waters 2690 Seperations module.system.
The samples were packed in double seal poly bags followed by Aluminium bag sealed under nitrogen with oxygen trapper and stored • at 2-8° C. for a period of six months • 25° C./60% relative humidity (RH) for a period of six months.
The purity of the sample was checked by HPLC and XRD was recorded for the samples stored under these conditions after 2 months and 6 months.
Inject 20 μl of test solution and calculate the chromatographic purity by area normalisation method.

[2] = Bulk and tapped density (tap density tester, USP)
Text: As referred to herein the term “bulk density” is the weight of the sample divided by its non packed volume and the term “tapped density” is the weight of the sample divided by its packed volume. The units of bulk density are grams (gm) per cubic centimeter (cc) or grams (gm) per milliliter (ml). A powder having low bulk density will be lightweight, fluffy and have greater surface area. A powder with high density will be much more compact and dense, exist as harder particles and will result in a more flowable product compared to powder with low bulk density. Bulk and tapped densities were measured using Electrolab ETD-1020 tap density tester (USP).

[3] = Material kept outside at room temperature for 15 hrs (XRD, water content, HPLC purity); conditions: after room temperature
Method: as §1, §4, §5
The material was kept outside at room temperature for 15 hrs.

[4] = Conservation of amorphous form under various storage conditions (XRD, moisture content)
Method: as §1, §2, §3, §4

[5] = 2-8° C. or 25° C./60% relative humidity, six months
[6] = 40° C./75% relative humidity for 7 days, double polythene bags in a fiber drum
[7] = 80° C. for 7 days, open petriplate
[8] = Room temperature for 24 hours, open petriplate
[9] = Room temperature for 40 days, double polythene bags

| SMILES | % Moisture Content ([1]; 2-8° C., 2 Months) | % Moisture Content ([1]; 2-8° C., 6 Months) | XRD ([1]; 2-8° C., 6 Months) | HPLC ([1]; 2-8° C., 6 Months) | % Moisture Content ([1]; 2-8° C., Initial) | HPLC ([1]; 2-8° C., Initial) | % Moisture Content ([1]; 25° C. RH 60%, 2 Months) | % Moisture Content ([1]; 25° C. RH 60%, 6 Months) | HPLC ([1]; 25° C. RH 60%, 6 Months) | % Moisture Content ([1]; 25° C. RH 60%, Initial) | HPLC ([1]; 25° C. RH 60%, Initial) | other results |
| --- | --- | --- | --- | --- | --- | --- | --- | --- | --- | --- | --- | --- |
| Nc1nc2[nH]cc(CCc3ccc(C(=O)NC(CCC(=O)[O-])C(=O)[O-])cc3)c2c(=O)[nH]1.[Na+].[Na+] (stereo not shown) [Amorphous Form of Pemetrexed Disodium, with Moisture Content] [listing 1 of 2 here] | 8.96% | 9.39% | Amorphous | 99.62 | 9.04% | 99.68 | 8.39% | 8.85% | 99.67 | 9.04% | 99.68 | HPLC ([1]; 2-8° C., 2 Months): 99.72; XRD ([1]; 2-8° C., Initial): Amorphous; HPLC ([1]; 25° C. RH 60%, 2 Months): 99.72; XRD ([1]; 25° C. RH 60%, 6 Months): Amorphous; XRD ([1]; 25° C. RH 60%, Initial): Amorphous |
| Nc1nc2[nH]cc(CCc3ccc(C(=O)NC(CCC(=O)[O-])C(=O)[O-])cc3)c2c(=O)[nH]1.[Na+].[Na+] (stereo not shown) [Amorphous Form of Pemetrexed Disodium, with Moisture Content] [listing 2 of 2 here] | 11.68% | 12.31% | Amorphous | 99.59 | 15.92% | 99.66 | 10.26% | 11.45% | 99.63 | 15.92% | 99.66 |  |
| Nc1nc2[nH]cc(CCc3ccc(C(=O)NC(CCC(=O)[O-])C(=O)[O-])cc3)c2c(=O)[nH]1.[Na+].[Na+] (stereo not shown) [Example 2, amorphous pemetrexed disodium] |  |  |  |  |  |  |  |  |  |  |  | Bulk density [2]: 0.226 gm/ml; Tapped density [2]: 0.369 gm/ml |
| Nc1nc2[nH]cc(CCc3ccc(C(=O)NC(CCC(=O)[O-])C(=O)[O-])cc3)c2c(=O)[nH]1.[Na+].[Na+] (stereo not shown) [Example 3, amorphous pemetrexed disodium] |  |  |  |  |  |  |  |  |  |  |  | HPLC purity [3]: 99.66%; Water content [3]: 16%; X-ray diffraction (form) [3]: amorphous form is retained |
| Nc1nc2[nH]cc(CCc3ccc(C(=O)NC(CCC(=O)[O-])C(=O)[O-])cc3)c2c(=O)[nH]1.[Na+].[Na+] (stereo not shown) [amorphous form of pemetrexed disodium, pemetrexed disodium] |  |  |  |  |  |  |  |  |  |  |  | amorphous form after storage (XRD) [1, 5]: amorphous form is retained; impurity formation / chemical purity after storage (HPLC) [1, 5]: no significant formation of impurities; % Moisture Content after storage [4, 6]: 18.27%; XRD [4, 6]: Amorphous form; % Moisture Content after storage [4, 7]: 6.24%; XRD [4, 7]: Amorphous form; % Moisture Content after storage [4, 8]: 20.03%; XRD [4, 8]: Amorphous form; % Moisture Content after storage [4, 9]: 18.56; XRD [4, 9]: Amorphous form; % Moisture Content Initial ([4]; before storage): 5.48% |
